Test results published in article PMC9508756, “Selected coffee (Coffea arabica L.) extracts inhibit intestinal α-glucosidases activities in-vitro and postprandial hyperglycemia in SD Rats” (BMC Complementary Medicine and Therapies, 2022).

Tests used:
[1] = tested on: Sprague–Dawley (SD) rats; assay: Starch loading test, postprandial blood glucose in SD rats; type: in vivo, rat; conditions: extracts 0.5 g/kg
From the text: (§1) All animal procedures were approved by the Institutional Animal Care and Use Com-[…]) of […] University (Approval number: HNU2016-0015-1). This study is reported in accordance with ARRIVE guidelines (https://arriveguidelines.org). Four-week-old male Sprague-Dawley (SD) rats were purchased from Joongang Experimental Animal Co. (Seoul, Korea) and fed with a standard diet (Samyang Diet Co., Seoul, Korea) and with water ad libitum for one week. Effect on hyperglycemia-induced by carbohydrate loads in Sprague-Dawley (SD) rats was determined by the inhibitory action of coffee extracts on postprandial hyperglycemia as described in [30]. […] In the case of the administration group, administration samples were prepared by mixing starch or sugar with coffee extracts by dose in advance were orally administrated using a zonde injection needle. […] The glucose level in blood was determined by the glucose oxidase method and compared with that of the control group. The parameters for blood glucose levels will be calculated Maximum observed peak blood glucose level (Cmax) and the time at which it is observed (Tmax) were determined based on the observed data. […] In addition, statistical significances in the animal study were determined by Student's t-test (*p < 0.05; **p < 0.01; and *** p < 0.001). […]

[2] = tested on: Sprague–Dawley (SD) rats; assay: Sucrose loading test, postprandial blood glucose in SD rats; type: in vivo, rat; conditions: sucrose 2.0 g/kg oral, extracts 0.5 g/kg, Acarbose 5.0 mg/kg, mean ± S.D., n = 5
From the text: as §1

[3] = biological target: rat intestinal α-glucosidase; assay: Rat small intestinal α-glucosidase inhibition assay (pNPG substrate); type: biochemical
Method: In order to investigate the inhibitory effect of coffee extracts on the absorption of glucose, rat intestinal α-glucosidase inhibitory activity was determined using the substrate p-nitrophenyl-α-D-glucopyranoside (pNPG) according to [28] with a slight modification. A total of 0.6 g of rat-intestinal acetone powder was suspended in 9 mL of 0.1 M sodium phosphate buffer 0.9%, and the suspension was sonicated for 12 times 30 s at 4 °C. It was then centrifuged (13,000 × g, 30 min, 4 °C), and the resulting supernatant was used for the assay. […] Absorbance was measured at 405 nm and compared to a control that had 50 μL of buffer solution in place of the extract by Micro-Plate Reader (SpectraMAx® i3, Molecular devices LLC., Wals, Austria). The rat α-glucosidase inhibitory activity was expressed as percent inhibition and was calculated as follows: Inhibition%=ΔAControl405-ΔAExtract405/ΔAControl405×100
All data are presented as mean ± S.D. Statistical analyses were carried out using the statistical packages SPSS 11 (Statistical Package for Social Science 11, SPSS Inc., Chicago, IL, USA) program and the significance of each group was verified with the analyses of one-way ANOVA followed by Duncan’s test of p < 0.05. In addition, statistical significances in the animal study were determined by Student’s t-test (*p < 0.05; **p < 0.01; and *** p < 0.001). […]

IC50 rat intestinal α-glucosidase ([3]; Ethanol extract row): < 500 µg/mL
IC50 rat intestinal α-glucosidase ([3]; Water extract row): < 500 µg/mL
Compound: C[C@H]1O[C@H](O[C@H]2[C@H](O)[C@@H](O)[C@@H](O[C@H]3[C@H](O)[C@@H](O)C(O)O[C@@H]3CO)O[C@@H]2CO)[C@H](O)[C@@H](O)[C@@H]1N[C@H]1C=C(CO)[C@@H](O)[C@H](O)[C@H]1O (some centres unmarked) [Acarbose, acarbose]
AUCt (blood glucose-time curve) ([1]; starch 2.0 g/kg oral, Acarbose 5.0 mg/kg, mean ± S.D., n = 5): 389.0 ± 36.8^*** hr·mg/dL
blood glucose level after starch loading compared to control ([1]; starch 2.0 g/kg, Acarbose 5 mg/kg oral): significantly higher blood lowering than all the coffee types and the controls
AUCt (blood glucose-time curve) [2]: 376.2 ± 17.2^*** hr·mg/dL
